Assays:
[1] = Solubility of rapamycin in solvents and solvent combination
[2] = Ex vivo skin permeation experiment; assay type: in vitro ADME, Human
Description: Human donor skin was placed between upper and lower compartments. The lower compartment was filled with receiver fluid. Various rapamycin compositions were applied on the surface of the skin facing the upper compartment (11 formulations (i.e., O3, NA21, NA22, NA21, NA17, TD201, NA19, NA25, AG14, NA26 and NA24), n=6 replicates, dosage 10 mg/cm^2) and left for 24 hrs. A positive displacement pipette was used to apply the formulation (˜10 mg/cm^2) to the plunger of a 1 mL syringe. The formulation (10+/−0.5 mg) was applied to the skin surface and spread over the diffusion area using the plunger. Prior to and after the application the weight of the plunger was recorded, from which the dose per cell was calculated.
Following the time period, the excess rapamycin compositions were wiped from the skin surface and the skin layers were separated into stratum corneum, epidermis, and dermis. The Stratum corneum was removed from the human skin using a tape stripping procedure. The epidermis was separated from the dermis by dry heating at 60° C. for 2 min. Rapamycin was extracted from each layer by 90:10 v/v ethanol:water solvent mixture, and quantified. The receiver fluid in the lower compartment was also analyzed for the presence of rapamycin.

Solubility capacity of each excipient based on concentration in formulation ([1]; IPA at 15.00 wt %): 0.56 wt % | Solubility capacity of each excipient based on concentration in formulation ([1]; IPA at 15.00 wt %, listed as rapamycin): −0.56 wt % | Solubility capacity of each excipient based on concentration in formulation ([1]; PEG 400 at 60.00 wt %): 1.03 wt % | Solubility capacity of each excipient based on concentration in formulation ([1]; diisopropyl adipate (DIA) at 15.00 wt %): 0.26 wt % | Solubility capacity of each excipient based on concentration in formulation ([1]; glycerol at 10.00 wt %): 0.08 wt % | Solubility capacity of the solvent system (expected maximum, simple linear additive effect) ([1]; sum of the excipient capacities): 1.93 wt % | amount of rapamycin found on the surface of the skin ([2]; after 24 hours, relative to skin layers): greatest amount | amount of rapamycin quantified in both the epidermis and dermis over time ([2]; ex vivo human skin): increase | rapamycin detected in the receiver fluid ([2]; ex vivo human skin, any of the time points across the experimental period): not detected
SMILES: CO[C@H]1C[C@@H]2CC[C@@H](C)[C@@](O)(O2)C(=O)C(=O)N2CCCC[C@H]2C(=O)O[C@H]([C@H](C)C[C@@H]2CC[C@@H](O)[C@H](OC)C2)CC(=O)[C@H](C)/C=C(\C)[C@@H](O)[C@@H](OC)C(=O)[C@H](C)C[C@H](C)/C=C/C=C/C=C/1C [Rapamycin, rapamycin (sirolimus)]
drug residing in the epidermis versus stratum corneum or dermal layer ([2]; ex vivo human skin): more of the drug residing in the epidermis
